Numbers after ± are expanded uncertainties.
What was measured:
[1] = 101.33 kPa, Liquid; for viscosity: Capillary tube (Ostwald / Ubbelohde) method; for mass density: Pycnometric method; for speed of sound: Sing-around technique in a fixed-path interferometer
[2] = xn = mol fraction of the nth substance listed; conditions: 101 kPa, Liquid; for viscosity: Capillary tube (Ostwald / Ubbelohde) method; for mass density: Pycnometric method; for speed of sound: Sing-around technique in a fixed-path interferometer

C1COCCO1 [1,4-dioxane]
[1]
Conditions	mass density [kg/m3]	speed of sound [m/s]	viscosity [mPa·s]
298.15 K	1027.3 ± 0.5	1344 ± 1.2	1.224 ± 0.0096
308.15 K	1016 ± 0.5	–	0.9268 ± 0.0074
318.15 K	1005.6 ± 0.5	–	0.7991 ± 0.0065

C1CCOC1 [tetrahydrofuran] + OCCO
[2], x2 = 0.5374
Conditions	mass density [kg/m3]	speed of sound [m/s]	viscosity [mPa·s]
298.15 K	984.5 ± 0.5	1436.8 ± 1.2	2.509 ± 0.019
308.15 K	974.1 ± 0.5	–	1.866 ± 0.014
318.15 K	964.9 ± 0.5	–	1.558 ± 0.012

C[S+](C)[O-] [dimethyl sulfoxide]
[1]
Conditions	mass density [kg/m3]	speed of sound [m/s]	viscosity [mPa·s]
298.15 K	1095.4 ± 0.6	1493 ± 1.2	2.042 ± 0.016
308.15 K	1085.9 ± 0.6	–	1.568 ± 0.012
318.15 K	1076.7 ± 0.6	–	1.485 ± 0.011

OCCO [1,2-ethanediol] + CN(C)C=O
[2], x1 = 0.5408
Conditions	mass density [kg/m3]	speed of sound [m/s]	viscosity [mPa·s]
298.15 K	1024.8 ± 0.5	1584.4 ± 1.3	3.065 ± 0.023
308.15 K	1016.8 ± 0.5	–	2.453 ± 0.019
318.15 K	1008.2 ± 0.5	–	1.96 ± 0.015

C1CCOC1 [tetrahydrofuran]
[1]
Conditions	mass density [kg/m3]	speed of sound [m/s]	viscosity [mPa·s]
298.15 K	880.7 ± 0.4	1279 ± 1.2	0.463 ± 0.004
308.15 K	871.2 ± 0.5	–	0.4277 ± 0.0038
318.15 K	861.4 ± 0.5	–	0.3902 ± 0.0035

OCCO [1,2-ethanediol]
[1]
Conditions	mass density [kg/m3]	speed of sound [m/s]	viscosity [mPa·s]
298.15 K	1106.3 ± 0.6	1666 ± 1.3	16.39 ± 0.11
308.15 K	–	–	10.77 ± 0.074
318.15 K	–	–	7.703 ± 0.054

O [water]
[1]
Conditions	mass density [kg/m3]	speed of sound [m/s]	viscosity [mPa·s]
298.15 K	–	1498 ± 1.2	0.8904 ± 0.0071
308.15 K	994.1 ± 0.5	–	0.7194 ± 0.0059
318.15 K	990.3 ± 0.5	–	0.596 ± 0.005

C1COCCO1 [1,4-dioxane] + OCCO
[2], x2 = 0.5867
Conditions	mass density [kg/m3]	speed of sound [m/s]	viscosity [mPa·s]
298.15 K	1070.9 ± 0.5	1519.2 ± 1.3	4.386 ± 0.033
308.15 K	1060.4 ± 0.6	–	3.36 ± 0.025
318.15 K	1050.9 ± 0.6	–	2.661 ± 0.02

CN(C)C=O [dimethylformamide]
[1]
Conditions	mass density [kg/m3]	speed of sound [m/s]	viscosity [mPa·s]
298.15 K	946.1 ± 0.5	1465 ± 1.2	0.8586 ± 0.0069
308.15 K	939.9 ± 0.5	–	0.7763 ± 0.0063
318.15 K	931.6 ± 0.5	–	0.7125 ± 0.0058

OCCO [1,2-ethanediol] + C[S+](C)[O-]
[2], x1 = 0.5573
Conditions	mass density [kg/m3]	speed of sound [m/s]	viscosity [mPa·s]
298.15 K	1108.5 ± 0.6	1617.3 ± 1.3	5.195
308.15 K	1098.9 ± 0.6	–	3.901
318.15 K	1089.6 ± 0.6	–	3.108

— the NIST ThermoML archive (doi:10.1021/je060113j)
